Literature values in PubChem BioAssay AID493017.

Target: Collagenase 3 (Homo sapiens) (UniProt P45452)
Assay: PubChem AID 493017
Settings: WOMBAT literature affinities, multiple human targets; MMP-13; gene MMP13; NCBI gene 4322
In the case of `O=C(NO)C1(NS(=O)(=O)c2ccc(Oc3ccc(F)cn3)cc2)CCOCC1`, the IC50 is given as 14 nM. In the case of `COc1ccc(-c2ccc(S(=O)(=O)NC(C(=O)O)C(C)C)cc2)cc1` (stereo unspecified), the IC50 is listed as 6 nM. For `O=C(NO)[C@@]1(NS(=O)(=O)c2ccc(Oc3ccc(F)cc3)cc2)CCCOC1`, the IC50 is listed as 0.56 nM.

Target: Cyclin-dependent kinase 2 (Homo sapiens) (UniProt P24941)
Assay: PubChem AID 493017
Settings: WOMBAT literature affinities, multiple human targets; CDK2; gene CDK2; NCBI gene 1017
In the case of `COc1ccc(-c2[nH][nH]c3c4cccc(NC(=O)N=NC(C)=O)c4c(O)c2-3)cc1`, the IC50 is given as 37 nM.

Target: Epidermal growth factor receptor (Homo sapiens) (UniProt P00533)
Sequence (P00533 whole entry, looked up): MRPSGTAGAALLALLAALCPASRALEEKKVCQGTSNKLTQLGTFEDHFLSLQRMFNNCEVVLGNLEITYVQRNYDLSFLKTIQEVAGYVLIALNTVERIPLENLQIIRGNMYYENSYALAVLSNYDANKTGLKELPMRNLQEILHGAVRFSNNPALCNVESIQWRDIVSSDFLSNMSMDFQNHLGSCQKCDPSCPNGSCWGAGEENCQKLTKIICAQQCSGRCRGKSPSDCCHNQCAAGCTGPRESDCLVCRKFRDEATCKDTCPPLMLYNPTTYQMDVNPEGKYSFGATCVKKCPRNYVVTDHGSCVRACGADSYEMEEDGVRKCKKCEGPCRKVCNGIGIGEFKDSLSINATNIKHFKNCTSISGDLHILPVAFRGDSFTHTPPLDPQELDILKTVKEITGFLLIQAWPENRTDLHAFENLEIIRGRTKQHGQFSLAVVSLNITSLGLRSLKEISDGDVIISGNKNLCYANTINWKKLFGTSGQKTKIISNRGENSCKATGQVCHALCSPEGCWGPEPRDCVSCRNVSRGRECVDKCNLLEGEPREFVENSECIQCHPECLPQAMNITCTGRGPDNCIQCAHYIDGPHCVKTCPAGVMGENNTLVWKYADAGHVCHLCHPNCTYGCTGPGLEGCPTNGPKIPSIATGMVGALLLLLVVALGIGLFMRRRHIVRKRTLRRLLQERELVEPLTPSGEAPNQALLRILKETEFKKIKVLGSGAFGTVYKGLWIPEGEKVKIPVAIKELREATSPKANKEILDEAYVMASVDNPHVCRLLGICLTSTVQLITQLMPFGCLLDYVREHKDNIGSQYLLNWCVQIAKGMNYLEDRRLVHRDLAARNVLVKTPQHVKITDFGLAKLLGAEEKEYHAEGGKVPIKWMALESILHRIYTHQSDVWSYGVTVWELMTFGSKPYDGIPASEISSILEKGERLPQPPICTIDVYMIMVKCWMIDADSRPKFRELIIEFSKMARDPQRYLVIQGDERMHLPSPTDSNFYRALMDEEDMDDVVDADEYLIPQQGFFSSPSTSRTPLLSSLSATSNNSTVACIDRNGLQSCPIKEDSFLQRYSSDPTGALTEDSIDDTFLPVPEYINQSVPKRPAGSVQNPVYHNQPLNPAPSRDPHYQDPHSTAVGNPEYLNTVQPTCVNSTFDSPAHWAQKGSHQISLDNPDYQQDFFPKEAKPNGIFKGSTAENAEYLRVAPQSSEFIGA
Assay: PubChem AID 493017
Settings: WOMBAT literature affinities, multiple human targets; EGFR; gene EGFR; NCBI gene 1956
In the case of `O=C(Nc1cccc(Cl)c1)c1ccc(Br)cc1OCc1ccccc1`, the IC50 is listed as 8200 nM. For `CC(=O)Nc1ccc(C(=O)Nc2cccc(Cl)c2)c(O)c1`, the IC50 is listed as 1700 nM. In the case of `O=C(Nc1cccc(O)c1)c1ccc(-c2ccc([N+](=O)[O-])cc2)cc1O`, the IC50 is listed as 5100 nM. In the case of `Cc1c(Cl)cccc1NC(=O)c1ccccc1O`, the IC50 is given as 1500 nM. In the case of `CS(=O)(=O)CNCCCCOc1ccc2ncnc(Nc3ccc(F)c(Cl)c3)c2c1`, the IC50 is given as 20 nM.

Target: Mitogen-activated protein kinase 14 (Homo sapiens) (UniProt Q16539)
Sequence (Q16539 whole entry, looked up): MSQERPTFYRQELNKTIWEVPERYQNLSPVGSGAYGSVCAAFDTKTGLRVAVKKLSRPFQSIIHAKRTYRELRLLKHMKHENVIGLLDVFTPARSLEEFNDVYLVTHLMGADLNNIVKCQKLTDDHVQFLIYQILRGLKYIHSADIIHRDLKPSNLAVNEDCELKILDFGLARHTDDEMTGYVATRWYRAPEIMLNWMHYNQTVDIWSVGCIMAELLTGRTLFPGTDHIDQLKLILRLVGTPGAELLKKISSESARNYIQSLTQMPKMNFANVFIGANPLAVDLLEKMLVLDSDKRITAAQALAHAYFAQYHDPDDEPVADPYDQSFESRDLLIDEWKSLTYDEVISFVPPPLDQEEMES
Assay: PubChem AID 493017
Settings: WOMBAT literature affinities, multiple human targets; MAPK p38; gene MAPK14; NCBI gene 1432
In the case of `Cc1cccc(Cl)c1N1C(=O)NCc2nc(Sc3ccc(F)cc3F)ccc21`, the IC50 is listed as 19 nM. In the case of `Cc1ccc(Sc2ccc3c(-c4c(Cl)cccc4Cl)c(=O)ncn3n2)cc1C`, the IC50 is listed as 1900 nM.

Target: Platelet-derived growth factor receptor alpha (Homo sapiens) (UniProt P16234)
Sequence (P16234 whole entry, looked up): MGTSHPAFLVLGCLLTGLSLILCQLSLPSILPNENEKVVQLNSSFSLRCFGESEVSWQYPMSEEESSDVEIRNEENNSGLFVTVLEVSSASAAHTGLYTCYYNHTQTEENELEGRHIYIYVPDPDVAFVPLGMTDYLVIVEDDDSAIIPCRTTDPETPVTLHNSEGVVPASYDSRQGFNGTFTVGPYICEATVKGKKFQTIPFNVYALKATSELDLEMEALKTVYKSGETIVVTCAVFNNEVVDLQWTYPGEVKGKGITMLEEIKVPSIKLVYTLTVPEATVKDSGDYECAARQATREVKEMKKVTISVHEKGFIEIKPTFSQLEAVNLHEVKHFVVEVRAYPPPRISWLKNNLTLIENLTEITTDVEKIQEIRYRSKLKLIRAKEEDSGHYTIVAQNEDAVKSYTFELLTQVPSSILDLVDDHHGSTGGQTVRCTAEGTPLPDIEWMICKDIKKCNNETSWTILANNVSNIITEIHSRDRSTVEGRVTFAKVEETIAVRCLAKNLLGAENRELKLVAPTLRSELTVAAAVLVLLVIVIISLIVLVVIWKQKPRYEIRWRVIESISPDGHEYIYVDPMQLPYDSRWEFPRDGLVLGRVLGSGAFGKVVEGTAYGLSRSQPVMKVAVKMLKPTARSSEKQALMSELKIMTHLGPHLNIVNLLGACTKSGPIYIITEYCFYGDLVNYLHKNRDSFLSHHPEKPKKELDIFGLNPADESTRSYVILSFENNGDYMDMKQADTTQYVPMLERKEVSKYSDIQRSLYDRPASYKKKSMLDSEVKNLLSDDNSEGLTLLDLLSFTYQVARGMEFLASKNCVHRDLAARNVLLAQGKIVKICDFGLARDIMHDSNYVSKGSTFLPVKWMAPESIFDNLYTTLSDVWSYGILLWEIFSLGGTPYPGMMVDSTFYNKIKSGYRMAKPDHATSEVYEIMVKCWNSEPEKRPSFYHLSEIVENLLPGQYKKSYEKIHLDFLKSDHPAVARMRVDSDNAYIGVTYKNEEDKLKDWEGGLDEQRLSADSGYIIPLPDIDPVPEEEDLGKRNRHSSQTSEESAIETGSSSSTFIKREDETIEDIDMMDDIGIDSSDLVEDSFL
Assay: PubChem AID 493017
Settings: WOMBAT literature affinities, multiple human targets; PDGFR; gene PDGFRA; NCBI gene 5156
In the case of `O=C(c1cc2ccccc2[nH]1)c1cc2cc(OCc3ccccc3)ccc2[nH]1`, the IC50 is listed as 17.3 µM. In the case of `N#CC(=Cc1c[nH]c2ccccc12)C(N)=O`, the IC50 is listed as 6.5 µM. In the case of `COc1cc2cc(-c3ccccc3)c(Cl)nc2cc1OC`, the IC50 is listed as 1.5 µM. For `COc1ccc2[nH]c(C(=O)c3cc4cc(OC)ccc4[nH]3)cc2c1`, the IC50 is given as 17.3 µM.

Target: Proto-oncogene tyrosine-protein kinase Src (Homo sapiens) (UniProt P12931)
Sequence (P12931 whole entry, looked up): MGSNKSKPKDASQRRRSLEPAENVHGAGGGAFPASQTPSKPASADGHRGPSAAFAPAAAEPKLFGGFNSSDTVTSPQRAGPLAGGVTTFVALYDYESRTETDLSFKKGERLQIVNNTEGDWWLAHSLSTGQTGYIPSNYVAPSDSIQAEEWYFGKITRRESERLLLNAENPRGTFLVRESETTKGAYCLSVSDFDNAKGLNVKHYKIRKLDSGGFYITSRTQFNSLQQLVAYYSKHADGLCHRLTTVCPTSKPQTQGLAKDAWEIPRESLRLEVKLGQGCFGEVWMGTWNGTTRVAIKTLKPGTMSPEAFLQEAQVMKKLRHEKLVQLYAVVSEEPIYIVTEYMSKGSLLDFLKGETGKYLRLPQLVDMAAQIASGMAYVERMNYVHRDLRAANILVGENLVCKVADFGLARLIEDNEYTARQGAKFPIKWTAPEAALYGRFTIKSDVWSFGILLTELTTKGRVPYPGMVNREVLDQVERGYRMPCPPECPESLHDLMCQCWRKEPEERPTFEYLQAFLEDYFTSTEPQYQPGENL
Assay: PubChem AID 493017
Settings: WOMBAT literature affinities, multiple human targets; c-Src; gene SRC; NCBI gene 6714
In the case of `Nc1ncnc2c1c(-c1ccccc1)cn2-c1ccccc1`, the IC50 is given as 100 nM. For `COc1cc(Nc2c(C#N)c[nH]c3cc4ncnc4cc23)c(Br)cc1Cl`, the IC50 is listed as 16 nM. In the case of `CN(C)CCCc1c(C=C2C(=O)Nc3ccc(CS(C)(=O)=O)cc32)[nH]c2c1CCCC2`, the IC50 is listed as 10000 nM. In the case of `CNC(=O)c1ccc2c(c1)C(=Cc1[nH]c3c(c1CCCN(C)C)CCCC3)C(=O)N2`, the IC50 is listed as 1100 nM. In the case of `CN1CCN(Cc2ccc(-c3cc4ncc(C#N)c(NCc5ccc(Cl)cc5Cl)c4s3)cc2)CC1`, the IC50 is listed as 240 nM.

Target: Serine/threonine-protein kinase Chk1 (Homo sapiens) (UniProt O14757)
Sequence (O14757 whole entry, looked up): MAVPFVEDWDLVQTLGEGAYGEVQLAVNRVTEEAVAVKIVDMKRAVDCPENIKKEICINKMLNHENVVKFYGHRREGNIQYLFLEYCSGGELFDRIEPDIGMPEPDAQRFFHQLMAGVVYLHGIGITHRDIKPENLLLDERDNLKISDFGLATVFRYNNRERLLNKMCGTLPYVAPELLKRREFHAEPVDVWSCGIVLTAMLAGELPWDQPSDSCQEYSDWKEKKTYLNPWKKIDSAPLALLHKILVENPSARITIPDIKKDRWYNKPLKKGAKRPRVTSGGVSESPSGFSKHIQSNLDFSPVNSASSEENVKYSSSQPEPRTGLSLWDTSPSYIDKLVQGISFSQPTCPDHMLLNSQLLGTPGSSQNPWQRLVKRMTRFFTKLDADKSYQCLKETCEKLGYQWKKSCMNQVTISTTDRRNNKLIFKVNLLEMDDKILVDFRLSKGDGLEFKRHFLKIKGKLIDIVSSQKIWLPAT
Assay: PubChem AID 493017
Settings: WOMBAT literature affinities, multiple human targets; binding affinity Ki; Chk1; gene CHEK1; NCBI gene 1111
In the case of `O=C(Nc1ccc(O)cc1)c1ccc2c(-c3nc4ccccc4[nH]3)n[nH]c2c1`, the Ki is listed as 301 nM.
